Data: ChEMBL document CHEMBL4130427, “Synthesis and evaluation of asymmetric curcuminoid analogs as potential anticancer agents that downregulate NF-κB activation and enhance the sensitivity of gastric cancer cell lines to irinotecan chemotherapy” (Eur J Med Chem, 2017)
Active and inactive are the calls of the source. The rule behind the calls is not given here.

Tests used:
SGC-7901 [1] = assay: Potency index, ratio of compound effect to curcumin effect for growth inhibition of human SGC7901 cells; type: functional
SGC-7901 [2] = assay: Growth inhibition of human SGC7901 cells at 20 uM after 72 hrs by MTT assay; type: functional, cell-based
BGC-823 [3] = assay: Potency index, ratio of compound effect to curcumin effect for growth inhibition of human BGC823 cells; type: functional
BGC-823 [4] = assay: Growth inhibition of human BGC823 cells at 20 uM after 72 hrs by MTT assay; type: functional, cell-based
Mus musculus = species: Mus musculus; assay: Growth inhibition of MFC cells at 20 uM after 72 hrs by MTT assay; type: functional
BGC-823 [5] = assay: Induction of apoptosis in human BGC823 cells assessed as downregulation of bcl2 protein expression at 2.5 to 5 uM after 48 hrs by Western blot method; type: functional, cell-based
SGC-7901 [6] = assay: Growth inhibition of human SGC7901 cells after 72 hrs by MTT assay; type: functional, cell-based; conditions: SGC-7901, 72 h
SGC-7901 [7] = assay: Inhibition of colony formation in human SGC7901 cells treated for 12 hrs followed by incubation in drug free medium for 14 days by crystal violet staining based assay; type: functional, cell-based
Homo sapiens [8] = species: Homo sapiens; assay: Inhibition of NFkappaB activation in human BGC823 cells assessed as reduction in TNFalpha-induced IkBalpha degradation at 1 to 5 uM preincubated for 2 hrs followed by TNFalpha addition measured after 30 mins by Western blot method; type: cell-based
SGC-7901 [9] = assay: Induction of apoptosis in human SGC7901 cells assessed as upegulation of Bax protein expression at 2.5 to 5 uM after 48 hrs by Western blot method; type: functional, cell-based
SGC-7901 [10] = assay: Induction of apoptosis in human SGC7901 cells assessed as apoptotic nuclei formation at 2.5 to 5 uM after 24 hrs by Hoechst 33258 staining based fluorescence microscopic method; type: functional, cell-based
BGC-823 [11] = assay: Induction of apoptosis in human BGC823 cells assessed as upegulation of cleaved caspase-3 protein expression at 2.5 to 5 uM after 48 hrs by Western blot method; type: functional, cell-based
Homo sapiens [12] = species: Homo sapiens; assay: Inhibition of NFkappaB activation in human BGC823 cells assessed as potentiation of irrinotecan-induced decrease in colony formation at 1 uM preincubated for 12 hrs followed by incubation in drug free medium for 11 days by crystal violet staining based assay; type: cell-based
SGC-7901 [13] = assay: Induction of apoptosis in human SGC7901 cells assessed as upegulation of cleaved caspase-3 protein expression at 2.5 to 5 uM after 48 hrs by Western blot method; type: functional, cell-based
Homo sapiens [14] = species: Homo sapiens; assay: Inhibition of NFkappaB activation in human BGC823 cells assessed as potentiation of irrinotecan-induced cell growth inhibition at 1 uM after 72 hrs by MTT method relative to irrinotecan alone; type: cell-based
Homo sapiens [15] = species: Homo sapiens; assay: Inhibition of NFkappaB activation in human BGC823 cells assessed as potentiation of irrinotecan-induced cell growth inhibition at 1 uM after 72 hrs by MTT method relative to (3E,5E)-3-(2,3-dimethoxybenzylidene)-5-(4-hydroxy-3-methoxybenzylidene)dihydro-2H-pyran-4(3H)-one alone; type: cell-based
Homo sapiens [16] = species: Homo sapiens; assay: Inhibition of NFkappaB activation in human BGC823 cells assessed as potentiation of irrinotecan-induced decrease in survival cell count at 1 uM after 48 hrs by cell analyzer method; type: cell-based
BGC-823 [17] = assay: Induction of apoptosis in human BGC823 cells assessed as upegulation of Bax protein expression at 2.5 to 5 uM after 48 hrs by Western blot method; type: functional, cell-based
BGC-823 [18] = assay: Inhibition of colony formation in human BGC823 cells treated for 12 hrs followed by incubation in drug free medium for 14 days by crystal violet staining based assay; type: functional, cell-based
BGC-823 [19] = assay: Growth inhibition of human BGC823 cells after 72 hrs by MTT assay; type: functional, cell-based; conditions: BGC-823, 72 h
SGC-7901 [20] = assay: Induction of apoptosis in human SGC7901 cells assessed as upegulation of cleaved PARP protein expression at 2.5 to 5 uM after 48 hrs by Western blot method; type: functional, cell-based
Homo sapiens [21] = species: Homo sapiens; assay: Inhibition of NFkappaB activation in human BGC823 cells assessed as potentiation of irrinotecan-induced cell growth inhibition at 1 uM after 48 hrs by inverted microscopic method relative to (3E,5E)-3-(2,3-dimethoxybenzylidene)-5-(4-hydroxy-3-methoxybenzylidene)dihydro-2H-pyran-4(3H)-one alone; type: cell-based
Homo sapiens [22] = species: Homo sapiens; assay: Inhibition of NFkappaB activation in human BGC823 cells assessed as potentiation of irrinotecan-induced cell growth inhibition at 1 uM after 48 hrs by inverted microscopic method relative to irrinotecan alone; type: cell-based
SGC-7901 [23] = assay: Induction of apoptosis in human SGC7901 cells assessed as downregulation of bcl2 protein expression at 2.5 to 5 uM after 48 hrs by Western blot method; type: functional, cell-based
Homo sapiens [24] = species: Homo sapiens; assay: Inhibition of NFkappaB activation in human SGC7901 cells assessed as reduction in TNFalpha-induced IkBalpha degradation at 1 to 5 uM preincubated for 2 hrs followed by TNFalpha addition measured after 30 mins by Western blot method; type: cell-based
BGC-823 [25] = assay: Induction of apoptosis in human BGC823 cells assessed as upegulation of cleaved PARP protein expression at 2.5 to 5 uM after 48 hrs by Western blot method; type: functional, cell-based
BGC-823 [26] = assay: Inhibition of colony formation in human BGC823 cells at 5 uM treated for 12 hrs followed by incubation in drug free medium for 14 days by crystal violet staining based assay; type: functional, cell-based
SGC-7901 [27] = assay: Inhibition of colony formation in human SGC7901 cells at 5 uM treated for 12 hrs followed by incubation in drug free medium for 14 days by crystal violet staining based assay; type: functional, cell-based

## COc1ccc(/C=C2\COC/C(=C\c3ccc(O)c(OC)c3)C2=O)c(OC)c1
SGC-7901 [1]
  Ratio: >2
SGC-7901 [2]
  growth inhibition (GI): Active

## COc1ccc(/C=C2\COC/C(=C\c3ccc(O)c(OC)c3)C2=O)c(C(F)(F)F)c1
BGC-823 [3]
  Ratio: >10
SGC-7901 [1]
  Ratio: >2
BGC-823 [4]
  growth inhibition (GI): Active
SGC-7901 [2]
  growth inhibition (GI): Active

## COc1ccc(OC)c(/C=C2\COC/C(=C\c3ccc(O)c(OC)c3)C2=O)c1
BGC-823 [3]
  Ratio: >10
SGC-7901 [1]
  Ratio: >2
Mus musculus
  growth inhibition (GI): Active
BGC-823 [4]
  growth inhibition (GI): Active
SGC-7901 [2]
  growth inhibition (GI): Active

## COc1cc(/C=C2\COC/C(=C\c3cccc(OC)c3OC)C2=O)ccc1O
BGC-823 [5]
  Activity: Active
SGC-7901 [6]
  IC50: 1600 nM
SGC-7901 [7]
  inhibition: Dose-dependent effect
Homo sapiens [8]
  inhibition: Dose-dependent effect
SGC-7901 [9]
  Activity: Active
BGC-823 [3]
  Ratio: >10
SGC-7901 [10]
  Activity: Active
BGC-823 [11]
  Activity: Active
Homo sapiens [12]
  inhibition: Active
SGC-7901 [13]
  Activity: Active
Homo sapiens [14]
  fold change (FC): 10
SGC-7901 [1]
  Ratio: >2
Homo sapiens [15]
  fold change (FC): 2.5
Homo sapiens [16]
  inhibition: Active
Mus musculus
  growth inhibition (GI): Active
BGC-823 [17]
  Activity: Active
BGC-823 [18]
  inhibition: Dose-dependent effect
BGC-823 [19]
  IC50: 3500 nM
SGC-7901 [20]
  Activity: Active
BGC-823 [4]
  growth inhibition (GI): Active
Homo sapiens [21]
  fold change (FC): 3
Homo sapiens [22]
  fold change (FC): 2
SGC-7901 [23]
  Activity: Active
Homo sapiens [24]
  inhibition: Dose-dependent effect
SGC-7901 [2]
  growth inhibition (GI): Active
BGC-823 [25]
  Activity: Active

## COc1ccc(/C=C2\COC/C(=C\c3ccc(O)c(OC)c3)C2=O)cc1O
BGC-823 [3]
  Ratio: >10
SGC-7901 [1]
  Ratio: >2
Mus musculus
  growth inhibition (GI): Active
BGC-823 [4]
  growth inhibition (GI): Active
SGC-7901 [2]
  growth inhibition (GI): Active

## COc1cc(/C=C/C(=O)CC(=O)/C=C/c2ccc(O)c(OC)c2)ccc1O
Mus musculus
  growth inhibition (GI): Active
BGC-823 [4]
  growth inhibition (GI): Active
SGC-7901 [2]
  growth inhibition (GI): Active

## Cc1ccc2nc(NCCN)c3ncc(C)n3c2c1
Mus musculus
  growth inhibition (GI): Active
BGC-823 [4]
  growth inhibition (GI): Active
SGC-7901 [2]
  growth inhibition (GI): Active

## Cc1ccc(S(=O)(=O)/C=C/C#N)cc1
BGC-823 [26]
  inhibition: Active
SGC-7901 [27]
  inhibition: Active
